Assays:
[1] = target: GDP KRAS G12D (Homo sapiens, UniProt P01116, G12D); assay: SPR binding affinity, GDP KRAS G12D; conditions: GDP-bound KRAS G12D
[2] = target: GppNHp KRAS G12D (Homo sapiens, UniProt P01116, G12D); assay: SPR binding affinity, GppNHp KRAS G12D; conditions: GppNHp-bound KRAS G12D
[3] = target: T1, Avi-KRAS G12D (1-169) GppNHp/RAF1 RBD-3×FLAG (52-151) (Homo sapiens, UniProt P01116, G12D); assay: HTRF Raf1-KRAS G12D-GppNHp disruption assay; type: biochemical; conditions: 1 h incubation
T1 construct: Avi-KRAS G12D (1-169) GppNHp
T1 sequence (P01116 1-169 isoform P01116-2 G12D limits assumed): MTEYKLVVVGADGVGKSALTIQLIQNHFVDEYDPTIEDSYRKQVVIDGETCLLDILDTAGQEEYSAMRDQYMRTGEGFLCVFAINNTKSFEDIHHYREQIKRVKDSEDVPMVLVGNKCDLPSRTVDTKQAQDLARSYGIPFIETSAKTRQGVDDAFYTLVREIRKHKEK
How it was run: (§1)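 Compounds titrated from 100 μM in a 10-point series, incubated with protein mix 1 h at room temperature, then HTRF reagents a further 1 h. Time-resolved fluorescence read (excitation 320 nm, emission 615 nm); activity expressed as percentage of DMSO control.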

[4] = target: T2, Avi-KRAS G12D/Q25A (1-169) GppNHp/3×FLAG-PI3KCA (157-299) (Homo sapiens, UniProt P01116, G12D/Q25A); assay: HTRF PI3KCA-KRAS G12D/Q25A-GppNHp disruption assay; type: biochemical; conditions: 1 h incubation
T2 construct: Avi-KRAS G12D/Q25A (1-169) GppNHp
T2 sequence (P01116 1-169 isoform P01116-2 G12D/Q25A limits assumed): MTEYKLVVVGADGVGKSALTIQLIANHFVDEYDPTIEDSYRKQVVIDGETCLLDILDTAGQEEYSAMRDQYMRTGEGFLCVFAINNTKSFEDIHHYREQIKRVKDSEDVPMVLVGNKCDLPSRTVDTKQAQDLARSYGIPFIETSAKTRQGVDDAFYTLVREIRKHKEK
How it was run: as §1

[5] = system: pERK in GP2d cells (KRAS G12D); assay: Cell-based pERK HTRF assay; conditions: GP2d, 1 h, 60 min incubation
How it was run: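 GP2d cells (DMEM, 10% FBS) treated 60 min with compounds in a 9-point half-log series from 1 μM top concentration, 0.25% DMSO. Lysates read for pERK by HTRF (d2/Eu cryptate antibodies) after 4–24 h at room temperature; emission at 615 nm.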

Chain of GppNHp KRAS G12D (P01116 1-188 isoform P01116-2 G12D): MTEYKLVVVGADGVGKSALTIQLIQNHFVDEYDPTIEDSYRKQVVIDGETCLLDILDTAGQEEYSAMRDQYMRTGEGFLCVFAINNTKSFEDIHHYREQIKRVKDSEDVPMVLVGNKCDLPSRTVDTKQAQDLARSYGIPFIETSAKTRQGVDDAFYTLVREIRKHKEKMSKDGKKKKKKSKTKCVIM
Chain of GDP KRAS G12D (P01116 1-188 isoform P01116-2 G12D): as above

| SMILES | Kd [1] | Kd [2] | IC50 [3] | IC50 [4] | IC50 [5] |
| --- | --- | --- | --- | --- | --- |
| Nc1nc2c(-c3c(C(F)(F)F)cc4c(N5CC6CCC(C5)N6)nc(OCC56CCCN5CCC6)nc4c3F)ccc(F)c2s1 [Compound 158, 4-(4-(3,8-diazabicyclo[3.2.1]octan-3-yl)-8-fluoro-2-((tetrahydro-1H-pyrrolizin-7a(5H)-yl)methoxy)-6-(trifluoromethyl)quinazolin-7-yl)-7-fluorobenzo[d]thiazol-2-amine] | ≤ 0.1 µM | ≤ 0.1 µM | 0.1 to 1 µM | 0.1 to 1 µM | ≤ 0.1 µM |
| N#Cc1c(N)sc2c(F)ccc(-c3c(C(F)F)cc4c(N5C[C@H]6CC[C@@H](C5)N6)nc(OC[C@@]56CCCN5C[C@H](F)C6)nc4c3F)c12 [Compound 301, 4-(4-((1R,5S)-3,8-diazabicyclo[3.2.1]octan-3-yl)-6-(difluoromethyl)-8-fluoro-2-(((2R,7aS)-2-fluorotetrahydro-1H-pyrrolizin-7a(5H)-yl)methoxy)quinazolin-7-yl)-2-amino-7-fluorobenzo[b]thiophene-3-carbonitrile] | ≤ 0.1 µM | ≤ 0.1 µM | 0.1 to 1 µM | 0.1 to 1 µM | ≤ 0.1 µM |
| CN1CCC[C@H]1COc1nc(NCCN)c2cc(Cl)c(-c3cccc4cc(O)ccc34)c(F)c2n1 [Compound 74] | – | 10 to 30 µM | 10 to 30 µM | 10 to 30 µM | – |
| CO[C@@H]1CN(C)C[C@H]1Oc1nc(NCCN)c2cc(Cl)c(-c3ccc(F)c4sc(N)nc34)c(F)c2n1 [Compound 60] | – | 10 to 30 µM | 10 to 30 µM | 10 to 30 µM | – |
| Nc1nc2c(-c3c(C(F)(F)F)cc4c(N5CC6CCC(C5)N6)nc(OC[C@@]56CCCN5C[C@H](F)C6)nc4c3F)ccc(F)c2s1 (single isomer, unassigned) [Compound 245] | ≤ 0.1 µM | ≤ 0.1 µM | ≤ 0.1 µM | ≤ 0.1 µM | ≤ 0.1 µM |
| CN(c1nc(OC[C@@]23CCCN2C[C@H](F)C3)nc2c(F)c(-c3ccc(F)c4sc(N)nc34)c(C(F)(F)F)cc12)[C@H]1CNC[C@H]1F [Compound 290] | ≤ 0.1 µM | 0.1 to 1 µM | 0.1 to 1 µM | 0.1 to 1 µM | ≤ 0.1 µM |
| CN(C)C1CN(c2nc(N3CCNCC3)c3cc(Cl)c(-c4ccc(F)c5sc(N)nc45)c(F)c3n2)C1 [Compound 47] | 1 to 10 µM | 10 to 30 µM | 10 to 30 µM | 10 to 30 µM | – |
| CN1CCC[C@H]1COc1nc(NC2CNC2)c2cc(Cl)c(-c3ccc(F)c4sc(N)nc34)c(F)c2n1 [Compound 55, 4-(4-(azetidin-3-ylamino)-6-chloro-8-fluoro-2-(((S)-1-methylpyrrolidin-2-yl)methoxy)quinazolin-7-yl)-7-fluorobenzo[d]thiazol-2-amine] | ≤ 0.1 µM | 1 to 10 µM | 1 to 10 µM | 1 to 10 µM | – |
| CO[C@@H]1CN(C)C[C@H]1Oc1nc(N2CCNCC2)c2cc(Cl)c(-c3ccc(F)c4sc(N)nc34)c(F)c2n1 [Compound 63] | – | 10 to 30 µM | 10 to 30 µM | 10 to 30 µM | – |
| Nc1nc2c(-c3c(C(F)(F)F)cc4c(N5CC6CCC(C5)N6)nc(OC[C@@]56CCCN5C[C@H](F)C6)nc4c3F)ccc(F)c2s1 (single isomer, unassigned) [Compound 246] | ≤ 0.1 µM | 1 to 10 µM | 1 to 10 µM | 1 to 10 µM | – |
| Nc1nc2c(-c3c(Cl)cc4c(N5CCNCC5)ncnc4c3F)ccc(F)c2s1 [Compound 1, 4-(6-chloro-8-fluoro-4-(piperazin-1-yl)quinazolin-7-yl)-7-fluorobenzo[d]thiazol-2-amine] | 1 to 10 µM | 10 to 30 µM | 10 to 30 µM | 10 to 30 µM | – |
| Nc1nc2c(-c3c(Cl)cc4c(NC5CNC5)nc(OCC56CCCN5CCC6)nc4c3F)ccc(F)c2s1 [Compound 89] | – | 0.1 to 1 µM | 1 to 10 µM | 1 to 10 µM | – |
| CN(c1nc(OC[C@@]23CCCN2C[C@H](F)C3)nc2c(F)c(-c3ccc(F)c4sc(N)nc34)c(C(F)(F)F)cc12)C1C2C[C@H]1CN2 (some centres unmarked) [Compound 289] | ≤ 0.1 µM | 0.1 to 1 µM | 0.1 to 1 µM | 0.1 to 1 µM | – |
| Nc1nc2c(-c3c(C(F)(F)F)cc4c(N5CC[C@@H]6CNC[C@@H]65)nc(OC[C@@]56CCCN5C[C@H](F)C6)nc4c3F)ccc(F)c2s1 [Compound 351] | – | – | 0.1 to 1 µM | 0.1 to 1 µM | 0.1 to 1 µM |
| Nc1nc2c(-c3c(OC(F)(F)F)cc4c(N5CC6CCC(C5)N6)nc(OC[C@@]56CCCN5C[C@H](F)C6)nc4c3F)ccc(F)c2s1 [Compound 232] | – | – | 0.1 to 1 µM | 10 to 30 µM | ≤ 0.1 µM |
| N#Cc1c(N)sc2c(F)ccc(-c3c(C(F)(F)F)cc4c(N5C[C@H]6CC[C@@H](C5)N6)nc(N5CC(N6CC7(CC7)C6)C5)nc4c3F)c12 [Compound 363, 4-(2-(3-(5-azaspiro[2.3]hexan-5-yl)azetidin-1-yl)-4-((1R,5S)-3,8-diazabicyclo[3.2.1]octan-3-yl)-8-fluoro-6-(trifluoromethyl)quinazolin-7-yl)-2-amino-7-fluorobenzo[b]thiophene-3-carbonitrile] | – | – | 0.1 to 1 µM | 0.1 to 1 µM | ≤ 0.1 µM |
| Nc1nc2c(-c3c(C(F)F)cc4c(N5C[C@H]6CC[C@@H](C5)N6)nc(OC[C@@]56CCCN5C[C@H](F)C6)nc4c3Cl)ccc(F)c2s1 [Compound 368, 4-(4-((1R,5S)-3,8-diazabicyclo[3.2.1]octan-3-yl)-8-chloro-6-(difluoromethyl)-2-(((2R,7aS)-2-fluorotetrahydro-1H-pyrrolizin-7a(5H)-yl)methoxy)quinazolin-7-yl)-7-fluorobenzo[d]thiazol-2-amine] | – | – | 0.1 to 1 µM | 0.1 to 1 µM | ≤ 0.1 µM |
| N#CC[C@H]1CN(c2ncnc3c(F)c(-c4ccc(F)c5sc(N)nc45)c(Cl)cc23)CCN1C(=O)CN [Compound 29] | 1 to 10 µM | 10 to 30 µM | 10 to 30 µM | 10 to 30 µM | – |
| Nc1nc2c(-c3c(C(F)(F)F)cc4c(N[C@H]5CCC[C@@H](N)C5)nc(OCC56CCCN5CCC6)nc4c3F)ccc(F)c2s1 [Compound 329] | – | – | 10 to 30 µM | 10 to 30 µM | > 1 µM |

More lines, main results first:

| Kd [1] | Kd [2] | IC50 [3] | IC50 [4] | SMILES | IC50 [5] |
| --- | --- | --- | --- | --- | --- |
| 0.1 to 1 µM | 1 to 10 µM | 1 to 10 µM | 1 to 10 µM | CN1CCC[C@H]1COc1nc(N2CCN(C(=O)CN)[C@@H](CC#N)C2)c2cc(Cl)c(-c3ccc(F)c4sc(N)nc34)c(F)c2n1 [Compound 54] | – |
| 0.1 to 1 µM | 10 to 30 µM | 10 to 30 µM | 10 to 30 µM | CN1CCC[C@H]1COc1nc(N2CCN[C@@H](CC#N)C2)c2cc(Cl)c(-c3ccc(F)c4sc(N)nc34)c(F)c2n1 [Compound 56] | – |
| ≤ 0.1 µM | 1 to 10 µM | 1 to 10 µM | 1 to 10 µM | CN1CCC[C@H]1COc1nc(NCCN)c2cc(Cl)c(-c3ccc(F)c4sc(N)nc34)c(F)c2n1 [Compound 49] | – |
| – | 0.1 to 1 µM | 1 to 10 µM | 1 to 10 µM | NCCNc1nc(OCC23CCCN2CCC3)nc2c(F)c(-c3ccc(F)c4sc(N)nc34)c(Cl)cc12 [Compound 77] | – |
| 1 to 10 µM | 10 to 30 µM | 10 to 30 µM | 10 to 30 µM | CN(C)C1CN(c2nc(NCCN)c3cc(Cl)c(-c4ccc(F)c5sc(N)nc45)c(F)c3n2)C1 [Compound 46, N^1-(7-(2-amino-7-fluorobenzo[d]thiazol-4-yl)-6-chloro-2-(3-(dimethylamino)azetidin-1-yl)-8-fluoroquinazolin-4-yl)ethane-1,2-diamine] | – |
| – | 1 to 10 µM | 10 to 30 µM | 10 to 30 µM | CN1CCC[C@H]1COc1nc(N2CCN(C(=O)CN)[C@@H](CC#N)C2)c2cc(Cl)c(-c3ccc(F)c4sc(N)nc34)c(O)c2n1 [Compound 59] | – |
| ≤ 0.1 µM | 1 to 10 µM | 1 to 10 µM | 10 to 30 µM | Nc1nc2c(-c3c(C(F)(F)F)cc4c(N[C@@H]5CCNC5)nc(OC[C@@]56CCCN5C[C@H](F)C6)nc4c3F)ccc(F)c2s1 (atropisomer, axis not shown) [Compound 249] | – |
| – | 10 to 30 µM | 10 to 30 µM | 10 to 30 µM | Cc1ccc2[nH]ncc2c1-c1c(Cl)cc2c(NCCN)nc(OC[C@@H]3CCCN3C)nc2c1F [Compound 62] | – |
| 1 to 10 µM | 10 to 30 µM | 10 to 30 µM | 10 to 30 µM | NCCNc1ncnc2c(F)c(-c3ccc(F)c4sc(N)nc34)c(Cl)cc12 [Compound 5, N^1-(7-(2-amino-7-fluorobenzo[d]thiazol-4-yl)-6-chloro-8-fluoroquinazolin-4-yl)ethane-1,2-diamine] | – |
| – | 1 to 10 µM | 1 to 10 µM | 1 to 10 µM | CO[C@@H]1C[C@@H](COc2nc(NCCN)c3cc(Cl)c(-c4ccc(F)c5sc(N)nc45)c(F)c3n2)N(C)C1 [Compound 61] | – |
| – | – | 1 to 10 µM | 1 to 10 µM | Nc1nc2c(-c3c(C(F)(F)F)cc4c(N5CC[C@H]6CCNC[C@H]65)nc(OCC56CCCN5CCC6)nc4c3F)ccc(F)c2s1 [Compound 348] | > 1 µM |
| – | – | 1 to 10 µM | 1 to 10 µM | CN(c1nc(OC[C@@]23CCCN2C[C@H](F)C3)nc2c(F)c(-c3ccc(F)c4sc(N)nc34)c(C(F)(F)F)cc12)[C@H]1CNCC1(C)C [Compound 325] | > 1 µM |

Source: patent US20240246954A1, “COMPOSITIONS AND METHODS FOR INHIBITING KRAS” (TheRas, Inc., priority 2021, published 2024)
